From PMC6001238, “Iterative Chemical Engineering of Vancomycin Leads to Novel Vancomycin Analogs With a High in Vitro Therapeutic Index” (Frontiers in Microbiology, 2018)
≈ marks a conversion by molar mass, not a printed value.

Experiments:
E. faecalis VSE 1 = assay: MIC, broth microdilution, vancomycin-sensitive E. faecalis (VSE 1); type: cell-based, Enterococcus faecalis; settings: for MIC: Enterococcus faecalis VSE 1 (vancomycin-sensitive), read-out: MIC; for MIC-fold improvement vs. vancomycin: VSE 1, ratio of MIC of vancomycin and MIC of analogue
Summary of the method: (§1)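 MIC values come from broth microdilution run to CLSI susceptibility-testing standards. Ultrapure water and uninoculated broth served as controls. In one series, vancomycin at a final 10 μM was co-dosed with the analogue or comparator antibiotic.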

[1] = test system: human T-lymphocyte (CEM) cells; assay: Cytostatic activity, CEM cell proliferation; type: cell-based; settings: mean ± SD of three experiments; highest concentration tested 250 µM; 3 days; read-out: Toxicity (IC50) CEM
Summary of the method: (§2)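 Test compounds, serially diluted, received an equal volume of cell suspension at 300,000–500,000 cells/mL. After 37°C incubation (2 days for L1210, 3 for CEM, 4 for HeLa), cells were enumerated by Coulter counting and 50%-inhibitory concentrations calculated per cell type.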

S. aureus VISA/HIP5827 = assay: MIC, broth microdilution, vancomycin-intermediate S. aureus VISA HIP5827; type: cell-based, Staphylococcus aureus; settings: for MIC: Staphylococcus aureus VISA/HIP5827, read-out: MIC; for MIC-fold improvement vs. vancomycin: VISA/HIP5827, ratio of MIC of vancomycin and MIC of analogue
Summary of the method: as §1

MRSA KS6 = assay: MIC, broth microdilution, MRSA KS6; type: cell-based, Staphylococcus aureus; settings: for MIC-fold improvement vs. vancomycin: MRSA KS6, ratio of MIC of vancomycin and MIC of analogue; for MIC: Staphylococcus aureus MRSA KS6, read-out: MIC
Summary of the method: as §1

E. faecalis VRE 53 = assay: MIC, broth microdilution, vancomycin-resistant E. faecalis VRE 53 (VanA); type: cell-based, Enterococcus faecalis; settings: for MIC: Enterococcus faecalis VRE 53 (vancomycin-resistant), read-out: MIC; for MIC-fold improvement vs. vancomycin: VRE 53, ratio of MIC of vancomycin and MIC of analogue
Summary of the method: as §1

MRSA KS89 = assay: MIC, broth microdilution, MRSA KS89; type: cell-based, Staphylococcus aureus; settings: for MIC-fold improvement vs. vancomycin: MRSA KS8, ratio of MIC of vancomycin and MIC of analogue; for MIC: Staphylococcus aureus MRSA KS8, read-out: MIC
Summary of the method: as §1

[2] = test system: human cervix carcinoma (HeLa) cells; assay: Cytostatic activity, HeLa cell proliferation; type: cell-based; settings: mean ± SD of three experiments; highest concentration tested 250 µM; 4 days; read-out: Toxicity (IC50) HeLa
Summary of the method: as §2

[3] = test system: Murine leukemia (L1210) cells; assay: Cytostatic activity, L1210 cell proliferation; type: cell-based; settings: mean ± SD of three experiments; highest concentration tested 250 µM; 2 days; read-out: Toxicity (IC50) L1210
Summary of the method: as §2

MRSA KS1 = assay: MIC, broth microdilution, MRSA KS1; type: cell-based, Staphylococcus aureus; settings: for MIC-fold improvement vs. vancomycin: MRSA KS1, ratio of MIC of vancomycin and MIC of analogue; for MIC: Staphylococcus aureus MRSA KS1, read-out: MIC
Summary of the method: as §1

S. aureus VRSA = assay: MIC, broth microdilution, vancomycin-resistant S. aureus (VRSA); type: cell-based, Staphylococcus aureus; settings: for MIC: Staphylococcus aureus VRSA, read-out: MIC; for MIC-fold improvement vs. vancomycin: VRSA, ratio of MIC of vancomycin and MIC of analogue
Summary of the method: as §1

E. faecalis VRE 6 = assay: MIC, broth microdilution, vancomycin-resistant E. faecalis VRE 6 (VanA); type: cell-based, Enterococcus faecalis; settings: for MIC: Enterococcus faecalis VRE 6 (vancomycin-resistant), read-out: MIC; for MIC-fold improvement vs. vancomycin: VRE 6, ratio of MIC of vancomycin and MIC of analogue
Summary of the method: as §1

MRSA KS2 = assay: MIC, broth microdilution, MRSA KS2; type: cell-based, Staphylococcus aureus; settings: for MIC-fold improvement vs. vancomycin: MRSA KS2, ratio of MIC of vancomycin and MIC of analogue; for MIC: Staphylococcus aureus MRSA KS2, read-out: MIC
Summary of the method: as §1

[4] = test system: S. aureus VSSA (ATCC 6538); assay: MIC, broth microdilution, vancomycin-sensitive S. aureus (VSSA/MSSA, ATCC 6538); type: cell-based, Staphylococcus aureus; settings: for MIC: Staphylococcus aureus VSSA, read-out: MIC; for MIC-fold improvement vs. vancomycin: VSSA, ratio of MIC of vancomycin and MIC of analogue
Summary of the method: as §1

E. faecalis VRE 29 = assay: MIC, broth microdilution, vancomycin-resistant E. faecalis VRE 29 (VanA); type: cell-based, Enterococcus faecalis; settings: for MIC: Enterococcus faecalis VRE 29 (vancomycin-resistant), read-out: MIC; for MIC-fold improvement vs. vancomycin: VRE 29, ratio of MIC of vancomycin and MIC of analogue
Summary of the method: as §1

E. faecalis VRE 37 = assay: MIC, broth microdilution, vancomycin-resistant E. faecalis VRE 37 (VanA); type: cell-based, Enterococcus faecalis; settings: for MIC: Enterococcus faecalis VRE 37 (vancomycin-resistant), read-out: MIC; for MIC-fold improvement vs. vancomycin: VRE 37, ratio of MIC of vancomycin and MIC of analogue
Summary of the method: as §1

[5] = test system: L1210, CEM and HeLa cell lines; assay: Cytostatic activity, average or summary over L1210, CEM and HeLa; type: cell-based; settings: average of L1210, CEM and HeLa; read-out: Toxicity (IC50) Average
Summary of the method: as §2

MIC (E. faecalis VSE 1) [µM]	MIC-fold improvement vs. vancomycin (E. faecalis VSE 1)	MIC (S. aureus VISA/HIP5827) [µM]	MIC-fold improvement vs. vancomycin (S. aureus VISA/HIP5827)	MIC-fold improvement vs. vancomycin (MRSA KS6)	MIC (MRSA KS6) [µM]	MIC (E. faecalis VRE 53) [µM]	MIC-fold improvement vs. vancomycin (E. faecalis VRE 53)	MIC-fold improvement vs. vancomycin (MRSA KS89)	MIC (MRSA KS89) [µM]	MIC-fold improvement vs. vancomycin (MRSA KS1)	MIC (MRSA KS1) [µM]	MIC (S. aureus VRSA) [µM]	MIC-fold improvement vs. vancomycin (S. aureus VRSA)	MIC (E. faecalis VRE 6) [µM]	MIC-fold improvement vs. vancomycin (E. faecalis VRE 6)	MIC-fold improvement vs. vancomycin (MRSA KS2)	Structure (SMILES)	IC50 [1] [µM]	IC50 [2] [µM]	IC50 [3] [µM]	further results
≤0.05	≥32	0.39 (≈ 0.657 µg/mL)	16	2	0.39 (≈ 0.657 µg/mL)	12.5 (≈ 21.1 µg/mL)	32	4	0.20 (≈ 0.337 µg/mL)	8	0.10 (≈ 0.169 µg/mL)	0.78 (≈ 1.31 µg/mL)	128	1.56 (≈ 2.63 µg/mL)	128	8	CNC(CC(C)C)C(=O)NC1C(=O)NC(CC(N)=O)C(=O)NC2C(=O)NC3C(=O)NC(C(=O)NC(C(=O)NCC(=O)Nc4ccc(C(=O)c5ccccc5)cc4)c4cc(O)cc(O)c4-c4cc3ccc4O)C(O)c3ccc(c(Cl)c3)Oc3cc2cc(c3OC2OC(CO)C(O)C(O)C2OC2CC(C)(N)C(O)C(C)O2)Oc2ccc(cc2Cl)C1O (stereo not drawn) [Vanc-88]	32 ± 1	98 ± 23	127 ± 32	MIC (MRSA KS2): 0.10 µM (≈ 0.169 µg/mL); MIC [4]: 0.39 µM (≈ 0.657 µg/mL); MIC-fold improvement vs. vancomycin [4]: 2; MIC (E. faecalis VRE 29): 1.56 µM (≈ 2.63 µg/mL); MIC-fold improvement vs. vancomycin (E. faecalis VRE 29): 256; MIC (E. faecalis VRE 37): 3.13 µM (≈ 5.28 µg/mL); MIC-fold improvement vs. vancomycin (E. faecalis VRE 37): 128; IC50 [5]: 86 µM
0.39 (≈ 0.713 µg/mL)	4	0.78 (≈ 1.43 µg/mL)	8	2	0.39 (≈ 0.713 µg/mL)	25 (≈ 45.7 µg/mL)	16	2	0.39 (≈ 0.713 µg/mL)	1	0.78 (≈ 1.43 µg/mL)	0.39 (≈ 0.713 µg/mL)	256	3.13 (≈ 5.72 µg/mL)	64	4	CNC(CC(C)C)C(=O)NC1C(=O)NC(CC(N)=O)C(=O)NC2C(=O)NC3C(=O)NC(C(=O)NC(C(=O)NCCCNC(=O)c4ccc5cc(NS(=O)(=O)c6ccc(C)cc6)ccc5c4)c4cc(O)cc(O)c4-c4cc3ccc4O)C(O)c3ccc(c(Cl)c3)Oc3cc2cc(c3OC2OC(CO)C(O)C(O)C2OC2CC(C)(N)C(O)C(C)O2)Oc2ccc(cc2Cl)C1O (stereo not drawn) [Vanc-65]	≥ 250	54 ± 45	> 250	MIC (MRSA KS2): 0.20 µM (≈ 0.366 µg/mL); MIC [4]: 0.39 µM (≈ 0.713 µg/mL); MIC-fold improvement vs. vancomycin [4]: 2; MIC (E. faecalis VRE 29): 6.25 µM (≈ 11.4 µg/mL); MIC-fold improvement vs. vancomycin (E. faecalis VRE 29): 64; MIC (E. faecalis VRE 37): 6.25 µM (≈ 11.4 µg/mL); MIC-fold improvement vs. vancomycin (E. faecalis VRE 37): 64; IC50 [5]: 185 µM
≤0.05	≥32	0.78 (≈ 1.33 µg/mL)	8	2	0.39 (≈ 0.663 µg/mL)	12.5 (≈ 21.2 µg/mL)	32	4	0.20 (≈ 0.34 µg/mL)	8	0.10 (≈ 0.17 µg/mL)	1.56 (≈ 2.65 µg/mL)	64	0.78 (≈ 1.33 µg/mL)	256	4	CNC(CC(C)C)C(=O)NC1C(=O)NC(CC(N)=O)C(=O)NC2C(=O)NC3C(=O)NC(C(=O)NC(C(=O)NCC(=O)Nc4ccc(-c5ccc(C(C)=O)cc5)cc4)c4cc(O)cc(O)c4-c4cc3ccc4O)C(O)c3ccc(c(Cl)c3)Oc3cc2cc(c3OC2OC(CO)C(O)C(O)C2OC2CC(C)(N)C(O)C(C)O2)Oc2ccc(cc2Cl)C1O (stereo not drawn) [Vanc-85]	5.6 ± 0.6	94 ± 12	31 ± 9	MIC (MRSA KS2): 0.20 µM (≈ 0.34 µg/mL); MIC [4]: 0.20 µM (≈ 0.34 µg/mL); MIC-fold improvement vs. vancomycin [4]: 4; MIC (E. faecalis VRE 29): 1.56 µM (≈ 2.65 µg/mL); MIC (E. faecalis VRE 37): 3.13 µM (≈ 5.32 µg/mL); MIC-fold improvement vs. vancomycin (E. faecalis VRE 37): 128; IC50 [5]: 44 µM
0.78 (≈ 1.28 µg/mL)	2	0.78 (≈ 1.28 µg/mL)	8	1	0.78 (≈ 1.28 µg/mL)	25 (≈ 41 µg/mL)	16	1	0.78 (≈ 1.28 µg/mL)	1	0.78 (≈ 1.28 µg/mL)	12.5 (≈ 20.5 µg/mL)	8	6.25 (≈ 10.3 µg/mL)	32	2	CN[C@H](CC(C)C)C(=O)N[C@H]1C(=O)N[C@@H](CC(N)=O)C(=O)N[C@H]2C(=O)N[C@H]3C(=O)N[C@H](C(=O)N[C@H](C(=O)NCC(=O)Nc4cc(OC)cc(OC)c4)c4cc(O)cc(O)c4-c4cc3ccc4O)[C@H](O)c3ccc(c(Cl)c3)Oc3cc2cc(c3O[C@@H]2O[C@H](CO)[C@@H](O)[C@H](O)[C@H]2O[C@H]2C[C@](C)(N)[C@H](O)[C@H](C)O2)Oc2ccc(cc2Cl)[C@H]1O [Vanc-17]	> 250	119 ± 48	> 250	MIC (MRSA KS2): 0.39 µM (≈ 0.64 µg/mL); MIC [4]: 0.78 µM (≈ 1.28 µg/mL); MIC-fold improvement vs. vancomycin [4]: 1; MIC (E. faecalis VRE 29): 25 µM (≈ 41 µg/mL); MIC-fold improvement vs. vancomycin (E. faecalis VRE 29): 16; MIC (E. faecalis VRE 37): 50 µM (≈ 82.1 µg/mL); MIC-fold improvement vs. vancomycin (E. faecalis VRE 37): 8; IC50 [5]: 206 µM

Structure (SMILES)	MIC (E. faecalis VSE 1) [µM]	MIC-fold improvement vs. vancomycin (E. faecalis VSE 1)	MIC (S. aureus VISA/HIP5827) [µM]	MIC-fold improvement vs. vancomycin (S. aureus VISA/HIP5827)	MIC-fold improvement vs. vancomycin (MRSA KS6)	MIC (MRSA KS6) [µM]	MIC (E. faecalis VRE 53) [µM]	MIC-fold improvement vs. vancomycin (E. faecalis VRE 53)	MIC-fold improvement vs. vancomycin (MRSA KS89)	MIC (MRSA KS89) [µM]	MIC-fold improvement vs. vancomycin (MRSA KS1)	MIC (MRSA KS1) [µM]	MIC (S. aureus VRSA) [µM]	MIC-fold improvement vs. vancomycin (S. aureus VRSA)	MIC (E. faecalis VRE 6) [µM]	MIC-fold improvement vs. vancomycin (E. faecalis VRE 6)	MIC-fold improvement vs. vancomycin (MRSA KS2)	IC50 [1] [µM]	IC50 [2] [µM]	IC50 [3] [µM]	further results
CNC(CC(C)C)C(=O)NC1C(=O)NC(CC(N)=O)C(=O)NC2C(=O)NC3C(=O)NC(C(=O)NC(C(=O)NCCCNC(=O)c4ccc(-c5ccccc5)cc4)c4cc(O)cc(O)c4-c4cc3ccc4O)C(O)c3ccc(c(Cl)c3)Oc3cc2cc(c3OC2OC(CO)C(O)C(O)C2OC2CC(C)(N)C(O)C(C)O2)Oc2ccc(cc2Cl)C1O (stereo not drawn) [Vanc-33]	0.20 (≈ 0.337 µg/mL)	8	0.20 (≈ 0.337 µg/mL)	32	2	0.39 (≈ 0.657 µg/mL)	25 (≈ 42.1 µg/mL)	16	2	0.39 (≈ 0.657 µg/mL)	2	0.39 (≈ 0.657 µg/mL)	0.78 (≈ 1.31 µg/mL)	128	1.56 (≈ 2.63 µg/mL)	128	4	78 ± 16	84 ± 8	57 ± 20	MIC (MRSA KS2): 0.20 µM (≈ 0.337 µg/mL); MIC [4]: 0.20 µM (≈ 0.337 µg/mL); MIC-fold improvement vs. vancomycin [4]: 4; MIC (E. faecalis VRE 29): 6.25 µM (≈ 10.5 µg/mL); MIC-fold improvement vs. vancomycin (E. faecalis VRE 29): 64; MIC (E. faecalis VRE 37): 12.5 µM (≈ 21.1 µg/mL); IC50 [5]: 73 µM
